{
  "source": "patent US9145376B2",
  "about": "“Quinazolinone inhibitors of dynein” (The Rockefeller University, priority 2011, dated 2015)",
  "key": {"[1]": {"test_system": "Gli3 processing in Shh-EGFP cells", "assay": "Quantitative assessment of Hh ligand-dependent Gli3 processing", "assay_type": "cell-based", "conditions": "Shh-EGFP cells stimulated with Shh-N, 16 hours", "method": "Shh-EGFP cells were seeded into 12-well plate at a density of 120,000 cells/well in DMEM containing 10% calf serum. 100 U/mL penicillin, and 0.1 mg/mL streptomycin. After being cultured for 24 hours, the cells were transferred into DMEM containing 0.5% calf serum, 10% Shh-conditioned medium, the antibiotics described above, and either individual compounds or DMSO. The cells were cultured for an additional 16 hours, washed with PBS, and then lysed by incubation on ice with SDS-PAGE loading buffer composed of 8% glycerol, 20 mM Tris-HCl, pH 6.8, 2% SDS, 100 mM DTT, 1 mM PMSF, 20 mM NaF, 2 mM Na3VO4, and an EDTA-free protease inhibitor cocktail (Roche). The lysed samples were heated to 100° C. for 7 minutes, loaded onto 3-8% Criterion XT Tris-Acetate polyacrylamide gels (Bio-Rad), electrophoresed in XT Tricine buffer (Bio-Rad), and transferred onto PVDF membranes. The membranes were dehydrated with methanol and probed overnight at 4° C. with goat polyclonal anti-Gli3 antibody (0.4 μg/mL: R & D Systems, AF3690) in PBS containing 4% non-fat dry milk and 0.1% Tween-20 (immunoblot blocking buffer). The blots were then washed 4×1 minutes in PBS and incubated with horseradish peroxidase-conjugated bovine polyclonal anti-goat IgG antibody (0.04 μg/mL, Jackson ImmunoResearch, 805-035-180) in immunoblot blocking buffer for 1 hour at room temperature. The membranes were next washed 4×1 minutes in PBS and visualized using SuperSignal West Dura Extended Duration substrate (Thermo Scientific) and a ChemiDoc XRS imaging system (Bio-Rad). Band intensities of Gli3FL and Gli3R where quantified using Quantity One software (Bio-Rad), and five independent experiments were used to determine the average Gli3FL/Gli3R ratio for each compound."}, "[2]": {"test_system": "ciliary IFT88 in Shh-EGFP cells (cytoplasmic dynein 2-dependent retrograde transport)", "assay": "Quantitative assessment of IFT88 trafficking", "assay_type": "cell-based", "conditions": "50 μM, one hour, compared to DMSO or compound 16", "excerpt": "As a microtubule-based compartment, the cilium utilizes specific motor proteins to move macromolecules along its axoneme. Intraflagellar transport (IFT) of cargo can be resolved into anterograde trafficking, which requires the plus end-directed kinesin-2 motor and the IFTB multisubunit complex, and retrograde trafficking, which utilizes the minus end-directed cytoplasmic dynein 2 motor and the IFTA complex. The genetic disruption of individual kinesin-2, cytoplasmic dynein 2, or IFT complex subunits has been previously found to induce ciliary defects and perturb Hh signaling. […] To confirm that ciliobrevins target cilia trafficking in general rather than a Hh pathway-specific process, we examined the effect of ciliobrevins on the subcellular localization of IFTB component IFT88, which requires cytoplasmic dynein 2-dependent retrograde transport for its return to the ciliary basal body.\nShh-EGFP cells were seeded into 24-well plates containing poly-D-lysine-coated 12-mm glass coverslips at a density of 30,000 cells/well and cultured for 24 hours in DMEM containing 10% calf serum, 100 U/mL penicillin, and 0.1 mg/mL streptomycin. […] Ciliary IFT levels were quantified essentially as described for Gli2 though no background was subtracted. At least 25 cilia were analyzed to determine the average ciliary IFT88 level for each experimental condition."}},
  "data": [
    {"smiles": "N#C/C(C(=O)c1ccc(Cl)cc1Cl)=C1\\NC(=O)c2ccccc2N1", "note": "[Example 1, 3-(2,4-dichlorophenyl)-3-oxo-2-(4-oxo-3,4-dihydroquinazolin-2(1H)-ylidene)propanenitrile]", "values": [
      {"measurement": "Gli3FL/Gli3R ratio", "setting": "[1]", "value": "altered the Gli3FL/Gli3R ratio"},
      {"measurement": "Shh-N-dependent Gli3FL phosphorylation", "setting": "[1]", "value": "reduced"}
    ]},
    {"smiles": "N#C/C(C(=O)c1ccc(Cl)cc1Cl)=C1\\NC(=O)c2ccc(Cl)cc2N1", "note": "[Example 31, 2-(7-chloro-4-oxo-3,4-dihydroquinazolin-2(1H)-ylidene)-3-(2,4-dichlorophenyl)-3-oxo-propanenitrile]", "values": [
      {"measurement": "IFT88 levels at the distal tip of primary cilia", "setting": "[2]", "value": "significant increase"},
      {"measurement": "Gli3FL/Gli3R ratio", "setting": "[1]", "value": "altered the Gli3FL/Gli3R ratio"},
      {"measurement": "Shh-N-dependent Gli3FL phosphorylation", "setting": "[1]", "value": "reduced"}
    ]}
  ]
}
